Experimental findings from ChEMBL document CHEMBL1201862, “PubChem BioAssay data set” (2004) are described below.

For test [1], the target named is T1, DNA dC->dU-editing enzyme APOBEC-3A (Homo sapiens, UniProt P31941). Description: Dose Response confirmation of small molecule APOBEC3A DNA Deaminase Inhibitors via a fluorescence-based single-stranded DNA deaminase assay. [Related pubchem assays (depositor defined):AID493011, AID493024]. Format: functional.
Test [2] deals with Polyadenylate-binding protein 1 (Homo sapiens, UniProt P11940). Description: PABP poly(A) RNA binding inhibitors, primary screen, biochemical, fluorescence polarization, uHTS (AID 2014). In general terms: Fluorescence polarisation rises when a labelled molecule tumbles more slowly, as on binding a larger partner.
For test [3], the target named is T2, DNA dC->dU-editing enzyme APOBEC-3G (Homo sapiens, UniProt Q9HC16). Format: functional.
Test [4] addresses T1, DNA dC->dU-editing enzyme APOBEC-3A. Briefly: SAR analysis of small molecule inhibitors of APOBEC3A DNA Deaminase via a fluorescence-based single-stranded DNA deaminase assay. The class given is functional. To be noted: read-out: IC50_Mean.
Test [5] deals with T2, DNA dC->dU-editing enzyme APOBEC-3G. Briefly: APOBEC3G deaminase inhibitors, SAR follow-up, biochemical, fluorescence, single-stranded DNA substrate (AID 602136). Format: functional. To be noted: read-out: IC50_Mean.
Test [6] addresses Eukaryotic translation initiation factor 4H (Homo sapiens, UniProt Q15056). Briefly: human eIF4H binding inhibitors, primary screen, translation initiation inhibitor project, biochemical, uHTS, fluorescence polarization (AID 2012).
Test [7] is described as follows: SAR analysis of small molecule activators of Apaf-1 using a LZ-Caspase-9/Caspase-3 Fluorescent Selectivity assay - Set 2. Format: functional. To be noted: read-out: EC50_Mean.
The target of test [8] is Apoptotic protease-activating factor 1 (Homo sapiens, UniProt O14727). Description: SAR analysis of small molecule Activators of Apaf-1 in a Fluorescent assay - set 2. The class given is functional. Particulars: read-out: EC50_Mean.
In test [9] the target is Sphingosine 1-phosphate receptor 2 (Homo sapiens, UniProt O95136). Description: Late-stage fluorescence-based dose-response cell-based counterscreen assay to identify agonists of the Sphingosine 1-Phosphate Receptor 3 (S1P3): Sphingosine 1-Phosphate Receptor 2 (S1P2) agonist assay. Format: functional. Background: The purpose of a counterscreen is to sort out artefacts and off-target activity.

Test [10] concerns the target Sphingosine 1-phosphate receptor 4 (Homo sapiens, UniProt O95977). Briefly: Late-stage fluorescence-based dose-response cell-based counterscreen assay to identify agonists of the Sphingosine 1-Phosphate Receptor 3 (S1P3): Sphingosine 1-Phosphate Receptor 4 (S1P4) agonist assay. The class given is functional.
Test [11] deals with Dual specificity protein kinase CLK4 (Homo sapiens, UniProt Q9HAZ1). Format: functional.
Test [12] has as its target Interleukin-1 receptor-associated kinase 4 (Homo sapiens, UniProt Q9NWZ3). The class given is functional.
Test [13] addresses Glycogen synthase kinase-3 beta (Homo sapiens, UniProt P49841). Format: functional.
In test [14] the target is Casein kinase II subunit alpha (Homo sapiens, UniProt P68400). The class given is functional.
Test [15] has as its target Serine/threonine-protein kinase Nek4 (Homo sapiens, UniProt P51957). Format: functional.
Test [16] addresses Dual specificity tyrosine-phosphorylation-regulated kinase 1A (Homo sapiens, UniProt Q13627). Format: functional.
The target of test [17] is Dual specificity protein kinase CLK2 (Homo sapiens, UniProt P49760). The class given is functional.
Test [18] concerns the target T3, High affinity choline transporter 1 (Homo sapiens, UniProt Q9GZV3).
T3 sequence (Q9GZV3 whole entry): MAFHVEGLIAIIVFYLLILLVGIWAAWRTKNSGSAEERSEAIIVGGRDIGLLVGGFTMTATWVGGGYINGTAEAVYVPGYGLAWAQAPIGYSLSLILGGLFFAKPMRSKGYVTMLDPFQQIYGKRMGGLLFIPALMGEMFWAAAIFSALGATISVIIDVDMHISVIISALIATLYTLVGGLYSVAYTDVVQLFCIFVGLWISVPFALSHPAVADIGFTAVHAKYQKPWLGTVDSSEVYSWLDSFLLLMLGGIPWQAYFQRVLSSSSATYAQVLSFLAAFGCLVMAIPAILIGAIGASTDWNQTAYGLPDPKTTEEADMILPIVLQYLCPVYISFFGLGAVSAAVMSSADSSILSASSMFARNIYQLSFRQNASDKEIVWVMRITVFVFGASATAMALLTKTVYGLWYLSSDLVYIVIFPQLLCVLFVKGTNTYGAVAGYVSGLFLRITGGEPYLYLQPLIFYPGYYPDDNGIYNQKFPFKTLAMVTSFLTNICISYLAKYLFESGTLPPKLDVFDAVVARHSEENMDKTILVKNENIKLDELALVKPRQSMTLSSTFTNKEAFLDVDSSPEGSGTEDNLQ
Description: CHT inhibitors, dose response, cell-based, 10-point CRC, membrane potential dye (AID 588401).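 Note: membrane potential dye fluorescence of choline-evoked depolarization via CHT.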 The class given is functional.

The target of test [19] is T3, High affinity choline transporter 1. Briefly: CHT inhibitors, dose response, cell-based, 5-point CRC, membrane potential dye (AID 504840). The class given is functional.
The target of test [20] is Serine/threonine-protein kinase D3 (Homo sapiens, UniProt O94806). Format: functional.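 Note: determined within a kinase panel screen, with PRKCN as the panel member.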
The target of test [21] is Serine/threonine-protein kinase D2 (Homo sapiens, UniProt Q9BZL6). Format: functional.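 Note: measured against PRKD2 as one member of a kinome-wide kinase profiling panel.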
Test [22] concerns the target Macrophage colony-stimulating factor 1 receptor (Homo sapiens, UniProt P07333). The class given is functional.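 Note: value comes from the Navigating the Kinome screening panel, CSF1R member.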
Test [23] concerns the target Ribosomal protein S6 kinase alpha-3 (Homo sapiens, UniProt P51812). Format: functional.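 Note: measured within a kinome-wide profiling panel.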
Test [24] deals with Rho-associated protein kinase 1 (Homo sapiens, UniProt Q13464). Format: functional.

Activity calls are given as the source filed them. Where only a bound is given, the exact number is not on record here.

T2 sequence (Q9HC16 whole entry): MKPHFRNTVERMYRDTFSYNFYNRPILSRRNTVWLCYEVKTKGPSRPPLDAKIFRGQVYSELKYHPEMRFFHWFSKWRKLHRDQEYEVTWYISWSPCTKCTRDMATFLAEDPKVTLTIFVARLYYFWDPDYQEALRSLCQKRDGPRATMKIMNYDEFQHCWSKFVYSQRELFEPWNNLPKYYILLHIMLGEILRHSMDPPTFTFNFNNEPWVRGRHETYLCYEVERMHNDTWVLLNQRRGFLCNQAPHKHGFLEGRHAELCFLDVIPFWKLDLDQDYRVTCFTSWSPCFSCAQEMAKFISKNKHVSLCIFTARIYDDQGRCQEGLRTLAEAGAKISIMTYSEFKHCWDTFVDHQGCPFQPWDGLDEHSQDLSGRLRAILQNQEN
T1 sequence (P31941 whole entry): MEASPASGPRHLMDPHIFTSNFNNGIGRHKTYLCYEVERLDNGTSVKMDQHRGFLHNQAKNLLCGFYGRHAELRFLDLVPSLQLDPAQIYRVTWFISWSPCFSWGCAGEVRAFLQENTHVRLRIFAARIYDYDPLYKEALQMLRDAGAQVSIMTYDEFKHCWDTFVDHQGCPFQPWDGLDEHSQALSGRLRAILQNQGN
Chain of Dual specificity protein kinase CLK4 (Q9HAZ1 whole entry): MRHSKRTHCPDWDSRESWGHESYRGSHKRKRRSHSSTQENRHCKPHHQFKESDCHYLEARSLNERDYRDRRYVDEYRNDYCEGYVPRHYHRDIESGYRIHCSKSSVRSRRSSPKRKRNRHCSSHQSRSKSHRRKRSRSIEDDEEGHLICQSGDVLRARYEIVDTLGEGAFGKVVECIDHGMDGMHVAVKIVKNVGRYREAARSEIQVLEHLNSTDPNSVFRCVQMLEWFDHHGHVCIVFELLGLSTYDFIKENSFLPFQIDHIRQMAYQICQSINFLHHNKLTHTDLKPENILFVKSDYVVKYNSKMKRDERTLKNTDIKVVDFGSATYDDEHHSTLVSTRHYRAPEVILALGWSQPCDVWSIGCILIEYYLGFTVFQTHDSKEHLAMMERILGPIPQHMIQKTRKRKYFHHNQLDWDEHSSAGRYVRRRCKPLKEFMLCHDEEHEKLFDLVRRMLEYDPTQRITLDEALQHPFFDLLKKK
Chain of Sphingosine 1-phosphate receptor 2 (O95136 whole entry): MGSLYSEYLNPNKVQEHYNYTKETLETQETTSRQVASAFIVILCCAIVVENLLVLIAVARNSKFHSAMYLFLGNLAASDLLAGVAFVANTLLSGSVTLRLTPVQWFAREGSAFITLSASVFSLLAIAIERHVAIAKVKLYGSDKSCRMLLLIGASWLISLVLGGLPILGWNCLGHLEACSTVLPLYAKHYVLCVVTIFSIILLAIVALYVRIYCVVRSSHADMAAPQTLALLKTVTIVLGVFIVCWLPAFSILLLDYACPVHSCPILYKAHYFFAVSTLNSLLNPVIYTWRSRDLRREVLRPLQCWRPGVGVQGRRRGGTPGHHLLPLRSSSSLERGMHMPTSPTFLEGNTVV
Chain of Apoptotic protease-activating factor 1 (O14727 whole entry): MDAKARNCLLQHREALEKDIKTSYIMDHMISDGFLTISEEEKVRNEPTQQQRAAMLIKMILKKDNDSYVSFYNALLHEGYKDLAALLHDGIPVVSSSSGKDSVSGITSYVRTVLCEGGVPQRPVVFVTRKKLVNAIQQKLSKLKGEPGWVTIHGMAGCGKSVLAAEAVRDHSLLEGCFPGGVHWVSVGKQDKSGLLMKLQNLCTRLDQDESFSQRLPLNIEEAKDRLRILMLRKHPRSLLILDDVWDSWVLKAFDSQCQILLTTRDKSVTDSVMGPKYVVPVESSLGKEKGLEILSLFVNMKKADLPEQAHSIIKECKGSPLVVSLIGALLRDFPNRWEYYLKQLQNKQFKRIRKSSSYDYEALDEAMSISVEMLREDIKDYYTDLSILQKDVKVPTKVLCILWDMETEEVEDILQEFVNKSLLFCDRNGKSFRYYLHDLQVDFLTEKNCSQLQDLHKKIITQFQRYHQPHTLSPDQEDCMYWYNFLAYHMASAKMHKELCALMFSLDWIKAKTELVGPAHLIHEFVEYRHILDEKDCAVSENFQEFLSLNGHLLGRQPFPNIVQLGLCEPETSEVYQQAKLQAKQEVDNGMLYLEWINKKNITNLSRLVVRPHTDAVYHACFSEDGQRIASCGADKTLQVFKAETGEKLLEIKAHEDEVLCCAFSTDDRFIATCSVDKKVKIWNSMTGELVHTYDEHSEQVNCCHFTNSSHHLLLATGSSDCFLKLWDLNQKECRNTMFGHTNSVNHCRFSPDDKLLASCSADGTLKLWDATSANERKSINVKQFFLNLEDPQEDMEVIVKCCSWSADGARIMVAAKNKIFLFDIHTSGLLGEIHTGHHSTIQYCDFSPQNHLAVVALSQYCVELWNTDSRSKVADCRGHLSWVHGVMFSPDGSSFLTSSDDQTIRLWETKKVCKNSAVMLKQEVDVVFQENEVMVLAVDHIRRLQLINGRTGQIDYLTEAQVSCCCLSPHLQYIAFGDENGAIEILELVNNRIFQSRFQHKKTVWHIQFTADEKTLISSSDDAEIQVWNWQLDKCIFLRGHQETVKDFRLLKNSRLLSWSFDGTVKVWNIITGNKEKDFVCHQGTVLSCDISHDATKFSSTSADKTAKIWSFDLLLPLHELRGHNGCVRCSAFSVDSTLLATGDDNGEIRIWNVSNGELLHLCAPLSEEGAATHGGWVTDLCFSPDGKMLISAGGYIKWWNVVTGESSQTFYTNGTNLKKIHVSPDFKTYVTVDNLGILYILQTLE
Chain of Sphingosine 1-phosphate receptor 4 (O95977 whole entry): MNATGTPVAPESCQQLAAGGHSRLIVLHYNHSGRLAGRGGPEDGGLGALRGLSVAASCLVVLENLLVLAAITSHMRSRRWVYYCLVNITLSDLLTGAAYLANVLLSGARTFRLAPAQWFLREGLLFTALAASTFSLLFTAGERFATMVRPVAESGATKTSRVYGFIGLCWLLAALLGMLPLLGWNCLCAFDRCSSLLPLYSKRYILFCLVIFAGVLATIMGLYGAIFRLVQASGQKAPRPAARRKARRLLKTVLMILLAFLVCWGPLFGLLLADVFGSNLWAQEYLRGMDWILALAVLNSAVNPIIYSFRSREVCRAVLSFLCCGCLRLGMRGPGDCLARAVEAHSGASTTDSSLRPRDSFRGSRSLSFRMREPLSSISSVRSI
Chain of Dual specificity protein kinase CLK2 (P49760 whole entry): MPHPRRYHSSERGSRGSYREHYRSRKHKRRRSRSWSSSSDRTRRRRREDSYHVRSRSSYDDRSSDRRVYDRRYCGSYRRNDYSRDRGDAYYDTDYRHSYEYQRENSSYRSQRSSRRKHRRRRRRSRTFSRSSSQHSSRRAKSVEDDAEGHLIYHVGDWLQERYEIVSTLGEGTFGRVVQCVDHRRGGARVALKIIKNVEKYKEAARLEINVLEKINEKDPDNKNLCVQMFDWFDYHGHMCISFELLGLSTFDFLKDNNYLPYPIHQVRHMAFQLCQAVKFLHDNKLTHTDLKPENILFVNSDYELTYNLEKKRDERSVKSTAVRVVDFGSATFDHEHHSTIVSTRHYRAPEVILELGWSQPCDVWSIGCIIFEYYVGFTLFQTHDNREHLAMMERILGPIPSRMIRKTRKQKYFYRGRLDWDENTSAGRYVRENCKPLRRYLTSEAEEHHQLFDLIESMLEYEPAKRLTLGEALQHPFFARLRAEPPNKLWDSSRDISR
Chain of Glycogen synthase kinase-3 beta (P49841 whole entry): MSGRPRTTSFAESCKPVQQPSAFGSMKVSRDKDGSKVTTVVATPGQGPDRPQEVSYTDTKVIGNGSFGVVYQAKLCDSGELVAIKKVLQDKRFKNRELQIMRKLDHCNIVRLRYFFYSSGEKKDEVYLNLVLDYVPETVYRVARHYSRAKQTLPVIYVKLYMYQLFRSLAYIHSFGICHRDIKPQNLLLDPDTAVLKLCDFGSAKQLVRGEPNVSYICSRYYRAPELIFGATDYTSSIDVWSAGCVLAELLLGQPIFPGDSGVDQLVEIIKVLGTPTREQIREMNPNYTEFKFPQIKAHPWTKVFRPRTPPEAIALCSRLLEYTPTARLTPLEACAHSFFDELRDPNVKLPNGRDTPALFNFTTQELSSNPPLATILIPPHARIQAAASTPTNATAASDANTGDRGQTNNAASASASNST
Chain of Ribosomal protein S6 kinase alpha-3 (P51812 whole entry): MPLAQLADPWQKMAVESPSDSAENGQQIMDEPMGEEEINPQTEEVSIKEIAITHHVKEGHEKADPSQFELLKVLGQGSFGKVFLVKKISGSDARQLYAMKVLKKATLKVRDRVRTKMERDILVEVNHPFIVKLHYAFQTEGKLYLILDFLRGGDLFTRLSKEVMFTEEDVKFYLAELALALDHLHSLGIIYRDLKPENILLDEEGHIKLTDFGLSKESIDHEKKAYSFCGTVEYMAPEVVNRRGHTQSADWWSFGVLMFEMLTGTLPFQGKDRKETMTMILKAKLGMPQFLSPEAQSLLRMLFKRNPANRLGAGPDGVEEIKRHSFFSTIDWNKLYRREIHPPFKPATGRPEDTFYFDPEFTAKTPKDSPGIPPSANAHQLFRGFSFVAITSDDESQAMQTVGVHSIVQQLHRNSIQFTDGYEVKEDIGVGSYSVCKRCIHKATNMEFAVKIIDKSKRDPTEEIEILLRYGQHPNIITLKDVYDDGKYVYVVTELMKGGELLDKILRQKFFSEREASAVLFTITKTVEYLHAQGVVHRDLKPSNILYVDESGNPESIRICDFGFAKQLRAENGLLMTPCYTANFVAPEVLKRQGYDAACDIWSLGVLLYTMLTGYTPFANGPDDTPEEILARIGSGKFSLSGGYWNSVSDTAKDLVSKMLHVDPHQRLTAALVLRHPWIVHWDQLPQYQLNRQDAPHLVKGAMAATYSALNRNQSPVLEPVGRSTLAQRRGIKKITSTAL

In the case of `CC1(C)Oc2ccc3ccc(=O)oc3c2C(/C=N/O)=C1Cl`, the IC50 is 4.97 µM (active) in [1]; 10.3 µM (active) in [2]; 6.8 µM (active) in [3]; 43 µM (inactive) in test [4]; > 99 µM (inactive) in test [5]; > 100 µM (inactive) in test [6].

In the case of `Cc1nn(CC(C)C(=O)O)c(C)c1C` (stereo not given), the figures for the EC50 in [7] and in [8] were > 100 µM (inactive) and 63.6 µM (active), respectively.

As for `O=C(c1coc(C2CC2)n1)N(C1CCCCC1)C1CCCCC1`, the EC50 in [9] and in test [10] was > 50 µM (inactive) in each case.

The term Ki denotes the dissociation constant of the complex between target and ligand, obtained from inhibition or displacement. On to `C(=Cc1cncc(OCCc2c[nH]c3ccccc23)c1)c1ccncc1`, for which the inhibitory constant (Ki) is 1 µM (active) in [11]; > 10 µM (inactive) in test [12]; 5.01 µM (active) in [13]; 3.16 µM (active) in test [14]; 6.31 µM (active) in [15].

As to `CCc1cccc2c1n(CC)c(=N)n2CC(=O)c1ccc(Cl)cc1`, the Ki in test [11] was 2.51 µM (active); in test [16], 2.51 µM (active); in [17] it was 1.58 µM (active).

As to `Nc1ncnc2c1ncn2C1OC(C(=O)NC2CC2)C(O)C1O` (stereo not given), the IC50 in test [18] was 0.00447 µM (active); in test [19] it was 24.1 pM (inconclusive).

Consider `CCNC(=O)c1[nH]nc(-c2cc(Cl)c(O)cc2O)c1-c1ccc(OC)cc1`, for which the Ki is 1.58 µM (active) in test [20]; 1.58 µM (active) in test [21]; 1.26 µM (active) in [22]; 3.16 µM (active) in [23]; 3.98 µM (active) in test [24].
